Source: paper PMC7284125, “Identification of annotated bioactive molecules that impair motility of the blood fluke Schistosoma mansoni” (International Journal for Parasitology: Drugs and Drug …, 2020)
Where two headings read alike, the source gives them in different places.

Assays:
[1] = test system: S. mansoni schistosomulae; assay: Phenotypic primary screen assay on schistosomulae (phenotype; viability by methylene blue dye exclusion); format: cell-based, Schistosoma mansoni; settings: for Phenotype / Viability (%): three-day-old schistosomulae, 10 μM, 24 h; for Phenotype: estimated 5 days post compound exposure; for Viability (%): calculated 5 days post compound exposure
Protocol: Puerto Rican strain Biomphalaria glabrata snails infected with S. mansoni were kindly provided by Dr. Fred Lewis (Biomedical Research Institute and BEI Resources, MD, USA). Schistosomulae were obtained by exposing six to eight weeks-old snails to continuous light for 2 h at 32 °C. […] At this point, animals with internal dark granulations and with no observable body contraction/relaxation cycles were considered dead.
Schistosomulae were monitored under a stereo microscope (SMZ1270, Nikon). Phenotypic observations were made by analyzing schistosomulae, 24 h after drug addition to assess any immediate effect and five days post-compound exposure to observe long-term impacts on both the movement and overall body shape in comparison to control animals exposed to DMSO only.

[2] = test system: S. mansoni schistosomulae; assay: Motility assay on schistosomulae (pixel displacement, relative to DMSO control); format: cell-based, Schistosoma mansoni; settings: for activity at 1 µM: Schistosoma mansoni, read-out: Fractional motility; for activity at 1 µM / Fractional motility: schistosomulae
Protocol: Puerto Rican strain Biomphalaria glabrata snails infected with S. mansoni were kindly provided by Dr. Fred Lewis (Biomedical Research Institute and BEI Resources, MD, USA). Schistosomulae were obtained by exposing six to eight weeks-old snails to continuous light for 2 h at 32 °C. The resulting suspension of cercaria was then mechanically transformed as described ([Lewis, 2001]) and cultured in Opti-MEM/antibiotics (Thermo Fisher Scientific, Waltham, MA) containing 100 μg/mL streptomycin and 100 units/ml penicillin supplemented with 5% fetal bovine serum (FBS; Thermo Fisher). Parasite cultures were incubated at 37 °C with 5% CO2 for at least 10 days with no apparent loss of viability. At this point, animals with internal dark granulations and with no observable body contraction/relaxation cycles were considered dead.
(§1) Schistosomulae (200/well) and adult parasites (unpaired worms) were maintained in 300 μL OPTI-MEM with 5% dialyzed FBS (without antibiotics) and exposed to compounds at 1 and 10 μM for 24 h. A kinetic assay consisting of 1, 3, 6 and 12 h incubation times was performed on selected hits by motility monitoring using a stereo microscope (SMZ1270, Nikon) for adults and an inverted microscope for schistosomulae (eclipse TE2000-U, Nikon) connected to a monochrome camera (DS-Qi2, Nikon) for image acquisition. Images were recorded at a rate of 10 frames/s for a period of 1 min and videos were analyzed using ImageJ software (version 1.41, NIH, USA). Parasite movement quantification and data analysis protocols were applied using the pixel displacement method ([Patocka et al., 2014]; [Rashid et al., 2015]) and compared to control parasites treated with DMSO. Parasites were then washed several times in Opti-MEM, 5% FBS and incubated up to an additional three days (schistosomulae) or five days (adult worms) at 37 °C, 5% CO2 and motility was recorded as described above.

S. mansoni adult worms = assay: Motility assay on adult parasites (pixel displacement, relative to DMSO control); format: cell-based, Schistosoma mansoni; settings: 10 μM; for Fractional motility: secondary screen; for motility phenotype in words: adults, long-term after washout
Protocol: Adult parasites were collected from 40 day-old female CD1 mice (Charles River) previously inoculated by the tail infection method ([Lewis, 2001]). Six weeks post-infection, mice were sacrificed, and adult worms extracted after perfusion of in the hepatic portal vein and mesenteric venules ([Lewis, 2001]). Animal procedures were reviewed and approved by the Facility Animal Care Committee of McGill University (Protocol No. 3346) and were conducted in accordance with the guidelines of the Canadian Council on Animal Care.
as §1

[3] = test system: S. mansoni schistosomulae; assay: Phenotypic primary screen assay on schistosomulae (phenotype; viability by methylene blue dye exclusion); format: cell-based; settings: Schistosoma mansoni; three-day-old schistosomulae, 10 μM, 24 h; calculated 5 days post compound exposure; read-out: Viability (%)
[4] = 120 h, secondary screen, 24h exposure, read at D5, 1 µM
[5] = secondary screen, 24h exposure, read at D1, 1 µM
[6] = secondary screen, 24h exposure, read at D1, 10 µM
[7] = secondary screen, 24h exposure, read at D5, 10 µM
[8] = secondary screen, 24h exposure, read at D5, 1 µM

Row | Compound | Phenotype [1] | activity at 1 µM [2, 4] [%] | activity at 1 µM [2, 5] [%] | Fractional motility ([2]; 1h exposure, read at D1, 10 µM) | Fractional motility ([2]; 1h exposure, read at D5, 10 µM) | Fractional motility ([2]; 3h exposure, read at D5, 10 µM) | Fractional motility ([2]; 6h exposure, read at D1, 10 µM) | Fractional motility [2, 6] | Fractional motility [2, 7] | Fractional motility (S. mansoni adult worms; D1, Female adult worms) | Fractional motility (S. mansoni adult worms; D1, Male adult worms) | Fractional motility (S. mansoni adult worms; D5, Female adult worms) | Fractional motility (S. mansoni adult worms; D5, Male adult worms) | viability at 10 µM [3] [%] | Viability (%) [1] | Fractional motility [2, 5] | Fractional motility [2, 8] | further results
1 | C[C@@H](NCCCc1cccc(C(F)(F)F)c1)c1cccc2ccccc12 [AMG-073] | big, granulated, blebbing | -32 | -28 | 7.02 | 0.35 | 0.72 | 6.39 | -0.83 | -1.00 | 0.11 | -0.24 | -0.43 | -0.27 | 55 |  |  |  | Fractional motility ([2]; 3h exposure, read at D1, 10 µM): 12.64; motility in extended assay with reduced incubation times, in words ([2]; three-day old schistosomulae, incubation 1 h, 3 h, 6 h): did not exhibit a significant change before the 24 hr incubation cut-off
2 | COc1cc(N2CCN(C)CC2)ccc1Nc1nccc(-c2cn(C)c3cnccc23)n1 [AZ191] | granulated, blebbing | 49 | -38 |  |  |  |  | -0.69 | -0.09 | -0.48 | 0.25 | -0.27 | 2.64 | 89.5 |  |  |  | 
3 | C=CC(=O)Nc1cc(Nc2nccc(-c3cn(C)c4ccccc34)n2)c(OC)cc1N(C)CCN(C)C [AZD9291] | dark, granulated, some blebbing | 134 | 89 | 0.30 | -0.42 | -0.33 | -0.37 | 7.13 | -0.73 | -0.59 | 0.48 | -0.14 | -0.20 | 39.5 |  |  |  | Fractional motility ([2]; 3h exposure, read at D1, 10 µM): 1.06; Fractional motility ([2]; 6h exposure, read at D5, 10 µM): 0.0374
4 | C=CC[C@]1(O)CC[C@H]2[C@@H]3CCC4=CC(=O)CCC4=C3C=C[C@@]21C [Altrenogest] | elongated | -12 | 147 |  |  |  |  | 10.00 | -0.06 | -0.04 | -0.0348 | -0.50 | 0.0449 | 90 |  |  |  | 
5 | CN(C)CCC=C1c2ccccc2CCc2ccccc21 [Amitriptyline] | elongated, granulated, blebbing | -4 | 286 |  |  |  |  | 5.01 | 0.60 | 0.24 | 1.53 | 0.30 | 0.03 | 90 |  |  |  | 
6 | CC(=O)c1cc([N+](=O)[O-])c(Sc2ccc(F)cc2F)s1 [P22077] | dark, granulated |  |  | 0.71 | 0.10 | -0.09 | 10.22 | 2.27 | -0.98 | -0.33 | -0.12 | -0.88 | -0.79 |  | 5% | -0.36 | -0.61 | Fractional motility ([2]; 3h exposure, read at D1, 10 µM): 3.24; Fractional motility ([2]; 6h exposure, read at D5, 10 µM): -0.30; motility phenotype in words (S. mansoni adult worms): severely paralyzed adults
7 | Cc1cnc(-c2cc(N3CCN(C(=O)CCS(C)(=O)=O)CC3)ncc2Cl)c(C)c1 [PF-5274857] | granulated |  |  |  |  |  |  | 0.15 | 4.02 | -0.02 | -0.62 | -0.13 | -0.56 |  | 96.5% | -0.26 | -0.49 | 
8 | O=C(/C=C/c1ccc2ccccc2n1)c1ccncc1 [PFK15] | dark, granulated |  |  |  |  |  |  | 3.41 | -0.80 | -0.30 | 4.15 | -0.50 | 0.98 |  | 63% | 1.64 | -0.50 | 
9 | N#CSc1cc(SC#N)c(N)nc1N [PR-619] | dark, granulated |  |  |  |  |  |  | 0.27 | -0.76 | 0.35 | 0.35 | -0.88 | -0.93 |  | 54,5% | 2.00 | 0.18 | hypomotility (S. mansoni adult worms; adult male and female parasites, long-term): 94.5%; motility phenotype in words (S. mansoni adult worms): severely paralyzed adults
10 | NS(=O)(=O)C#Cc1ccccc1 [Pifithrin-μ] | big , dark, granulated |  |  |  |  |  |  | 2.61 | -1.00 | -0.0347 | -0.36 | -0.90 | -0.23 |  | 0% | 1.37 | -0.80 | 
11 | O=C(Nc1ccccc1-c1cn2c(CN3CCNCC3)csc2n1)c1cnc2ccccc2n1 [SRT1720] | dark, granulated |  |  |  |  |  |  | -1.00 | -1.00 | 3.42 | 2.50 | 0.62 | 1.34 |  | 0% | 20.54 | 0.36 | effect on viability of schistosomulae in words ([1]; 24 h incubation, five days): lethal
12 | HO-3867 | dark, granulated |  |  | 1.63 | -0.56 | -0.41 | -0.37 | 2.56 | -0.58 | 0.32 | 0.13 | -0.89 | -0.84 |  | 42,5% | 1.34 | 1.27 | Fractional motility ([2]; 6h exposure, read at D5, 10 µM): -0.0245; motility phenotype in words (S. mansoni adult worms): Significant hypomotility
